Experimental data from publication PMC8869358, “High-Throughput Chemical Screening and Structure-Based Models to Predict hERG Inhibition” (Biology, 2022).
Counter-ions that a name gives are not always drawn.

Biological target: hERG (Homo sapiens, UniProt Q12809)
Test: cell-based
Conditions: (-LOG10(IC50), µM)

Sequence of hERG (Q12809 whole entry): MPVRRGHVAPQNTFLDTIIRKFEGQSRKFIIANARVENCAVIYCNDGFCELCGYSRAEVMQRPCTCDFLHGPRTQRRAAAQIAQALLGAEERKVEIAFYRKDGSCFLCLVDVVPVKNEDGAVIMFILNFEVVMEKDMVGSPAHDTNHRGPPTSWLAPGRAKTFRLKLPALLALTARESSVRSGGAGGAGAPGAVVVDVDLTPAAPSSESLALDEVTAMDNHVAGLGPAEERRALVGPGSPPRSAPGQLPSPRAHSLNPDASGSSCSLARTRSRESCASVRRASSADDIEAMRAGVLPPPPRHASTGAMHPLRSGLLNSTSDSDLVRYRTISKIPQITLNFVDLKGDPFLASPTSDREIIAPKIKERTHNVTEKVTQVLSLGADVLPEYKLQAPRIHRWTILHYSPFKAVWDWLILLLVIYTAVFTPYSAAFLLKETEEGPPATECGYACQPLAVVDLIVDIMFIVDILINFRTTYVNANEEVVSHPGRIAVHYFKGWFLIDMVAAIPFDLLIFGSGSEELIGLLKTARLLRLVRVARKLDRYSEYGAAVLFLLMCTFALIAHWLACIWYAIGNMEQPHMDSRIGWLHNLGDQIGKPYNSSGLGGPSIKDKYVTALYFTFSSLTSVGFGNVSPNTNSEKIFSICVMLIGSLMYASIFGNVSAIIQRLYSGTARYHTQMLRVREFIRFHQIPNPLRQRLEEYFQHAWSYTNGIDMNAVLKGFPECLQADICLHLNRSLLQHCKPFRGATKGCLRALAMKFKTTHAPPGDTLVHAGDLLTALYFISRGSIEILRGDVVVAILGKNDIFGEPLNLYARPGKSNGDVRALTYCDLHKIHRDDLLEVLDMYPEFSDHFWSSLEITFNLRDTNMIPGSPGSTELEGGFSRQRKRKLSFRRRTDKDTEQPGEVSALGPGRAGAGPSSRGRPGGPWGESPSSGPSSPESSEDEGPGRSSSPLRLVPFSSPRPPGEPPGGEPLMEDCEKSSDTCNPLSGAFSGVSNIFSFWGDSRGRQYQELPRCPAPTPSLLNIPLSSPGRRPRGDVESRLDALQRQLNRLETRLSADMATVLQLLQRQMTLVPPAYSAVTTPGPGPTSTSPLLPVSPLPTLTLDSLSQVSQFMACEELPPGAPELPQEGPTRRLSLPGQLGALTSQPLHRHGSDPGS

Point of comparison: `CCN(CC)CCOC(=O)C(O)(c1ccccc1)c1ccccc1` [Benactyzine], IC50 11.5 µM. Against it:
- CCCCCCCCN[C@H](C)[C@@H](O)c1ccc(SC(C)C)cc1 [Suloctidil] — 40-fold lower, 0.29 µM
- CCOP(=S)(Oc1ccc([N+](=O)[O-])cc1)c1ccccc1 (stereo not drawn) [EPN] — 15-fold lower, 0.776 µM
- CC1(C)CCC(Cc2ccc(Cl)cc2)C1(O)Cn1cncn1 (stereo not drawn) [Metconazole] — 4.4-fold higher, 50.9 µM
- CN1C(=O)N(c2ccccc2Br)Cc2cnc(Nc3ccc4c(c3)OCC(CO)O4)nc21 (stereo not drawn) [PharmaGSID_48519] — 3.8-fold higher, 43.6 µM
- CCC(C)(C)c1ccc(CC(C)CN2C[C@@H](C)O[C@@H](C)C2)cc1 (stereo partly drawn) [Amorolfine] — within 1.5-fold, 9.16 µM
- Cc1cc(C(C)(C)CC(C)(C)C)ccc1OCCOCC[N+](C)(C)Cc1ccccc1 [Methylbenzethonium chloride] — 15-fold lower, 0.756 µM
- CC(C)CC(C)N(c1ccccc1)c1ccc(N)cc1 (stereo not drawn) [N-(4-Methylpentan-2-yl)-N-phenylbenzene-1,4-diamine] — 2.4-fold higher, 27.5 µM
- CCOC(=O)c1c(N)sc2c1CCN(Cc1ccccc1)C2 [Tinoridine] — 1.9-fold higher, 21.3 µM
- O=C(CCC1CCN(Cc2ccccc2)CC1)c1ccc2c(c1)NCCCC2 [Zanapezil fumerate] — 2.5-fold lower, 4.59 µM
- NC(=O)C1(N2CCCCC2)CCN(CCCC(=O)c2ccc(F)cc2)CC1 [Pipamperone dihydrochloride] — 1.7-fold higher, 20.1 µM
- CCCCCCCCCCCCCCCCn1cc[n+](C)c1 [1-Hexadecyl-3-methylimidazolium tetrafluoroborate] — within 1.5-fold, 9.86 µM
- C=CCCC(=O)/C=C/C1C(C)=CCCC1(C)C (stereo not drawn) [Allyl Ionone] — 2.7-fold higher, 30.9 µM
- Clc1ccc(C(c2ccccc2Cl)C(Cl)(Cl)Cl)cc1 (stereo not drawn) [o,p'-DDT] — 1.9-fold higher, 21.5 µM
- CCC(C)Nc1ccc(NC(C)CC)cc1 (stereo not drawn) [N,N'-Bis(1-methylpropyl)-1,4-benzenediamine] — within 1.5-fold, 12.5 µM
- Clc1ccc(C(c2ccccc2Cl)C(Cl)Cl)cc1 (stereo not drawn) [1-(2-Chlorophenyl)-1-(4-chlorophenyl)-2,2-dichloroethane] — 1.9-fold higher, 21.9 µM
- CC(=O)c1cc2c(cc1C)C(C)(C)C(C)CC2(C)C (stereo not drawn) [Tonalide] — 1.8-fold higher, 20.3 µM
- COc1ccc2cc1Oc1ccc(cc1)C[C@H]1c3c(cc4c(c3Oc3cc5c(cc3OC)CCN(C)[C@@H]5C2)OCO4)CCN1C [Cepharanthine] — within 1.5-fold, 10.3 µM
- CN1[C@@H]2CC[C@H]1C[C@@H](OC(=O)c1cc(Cl)cc(Cl)c1)C2 [Bemesetron] — 1.9-fold lower, 6.01 µM
- O[Si](c1ccccc1)(c1ccccc1)c1ccccc1 [Triphenylsilanol] — 1.9-fold higher, 21.9 µM
- C[C@]12CC[C@@H]3c4ccc(O)cc4CC[C@H]3[C@@H]1CC[C@@H]2OC(=O)CCC1CCCC1 [Estradiol cypionate] — 3.8-fold higher, 43.6 µM
- c1cc(CN2CCCCC2)cc(OCCCNc2nc3ccccc3s2)c1 [Zolantidine dimaleate] — within 1.5-fold, 9.16 µM
- Clc1cc(Cl)c2c(c1)N=C1CCCCCN1C2 [1,3-Dichloro-6,7,8,9,10,12-hexahydroazepino[2,1-b]quinazoline hydrochloride (1:1)] — within 1.5-fold, 12.5 µM
- Fc1ccc(Oc2ccnc3cc(Cl)cc(Cl)c23)cc1 [Quinoxyfen] — 2-fold higher, 22.7 µM
- Cc1c([N+](=O)[O-])cc2c(c1[N+](=O)[O-])C(C)(C)CC2(C)C [1,1,3,3,5-Pentamethyl-4,6-dinitro-2,3-dihydro-1H-indene] — within 1.5-fold, 16.7 µM
- CC1(c2ccc(Oc3ccccc3)cc2)OC(=O)N(Nc2ccccc2)C1=O (stereo not drawn) [Famoxadone] — 2-fold higher, 22.9 µM
- CCCCC/C=C\C/C=C\CCCCCCCC(=O)NC(C)c1ccccc1 (stereo not drawn) [Melinamide] — 1.9-fold higher, 21.3 µM
- O=CC=C(c1ccccc1)c1ccccc1 [3,3-Diphenylacrylaldehyde] — 3.7-fold higher, 42.4 µM
- CC(C)(c1ccccc1)c1ccc(O)c(C(C)(C)c2ccccc2)c1 [2,4-Bis(1-methyl-1-phenylethyl)phenol] — 1.9-fold higher, 21.7 µM
- COC(=O)C1=C(C)NC(C)=C(C(=O)OCCN2CCN(C(c3ccccc3)c3ccccc3)CC2)C1c1cccc([N+](=O)[O-])c1 (stereo not drawn) [Manidipine dihydrochloride] — 1.6-fold lower, 7 µM
- CN1CCN(c2ccccc2/C=C2\SCCN(c3ccc(Cl)c(Cl)c3)C2=O)CC1 [Elzasonan] — 7.1-fold lower, 1.61 µM
- O=C1NCN(c2ccccc2)C12CCN(CC1COc3ccccc3O1)CC2 (stereo not drawn) [Spiroxatrine] — 1.8-fold lower, 6.24 µM
- CC(CN1c2ccccc2Sc2ccccc21)N(C)C (stereo not drawn) [Promethazine hydrochloride] — 2-fold higher, 23 µM
- Clc1ccc(Cn2c(CN3CCCC3)nc3ccccc32)cc1 [Clemizole hydrochloride] — 8.6-fold lower, 1.34 µM
- CCCC[C@H]1CN(CC2CCOCC2)C(=O)OC12CCN(C1(C)CCN(C(=O)c3c(C)ncnc3C)CC1)CC2 [PharmaGSID_48521] — within 1.5-fold, 13.6 µM
- O=[N+]([O-])c1ccc(Nc2ccccc2)cc1 [4-Nitro-N-phenylaniline] — 4.5-fold higher, 51.3 µM
- CC(CC1c2ccccc2CCc2ccccc21)CN(C)C (stereo not drawn) [Butriptyline] — within 1.5-fold, 16.9 µM
- c1ccc2c(c1)CCc1ccccc1N2 [10,11-Dihydro-5H-dibenz[b,f]azepine] — 1.7-fold higher, 19.7 µM
- CCCCCCCCCCCCCC[N+](C)(C)Cc1ccccc1 [Benzyldimethyltetradecylammonium chloride dihydrate] — 5.6-fold lower, 2.05 µM
- CCC(COC(=O)CCS)(COC(=O)CCS)COC(=O)CCS [2,2-Bis{[(3-sulfanylpropanoyl)oxy]methyl}butyl 3-sulfanylpropanoate] — 3.4-fold higher, 38.9 µM
- COc1c(C(C)(C)C)cc([N+](=O)[O-])c(C)c1[N+](=O)[O-] [Musk ambrette] — 1.8-fold higher, 20.5 µM
- COC(=O)[C@H]1[C@H]2C[C@@H]3c4[nH]c5cc(OC)ccc5c4CCN3C[C@H]2C[C@@H](OC(=O)/C=C/c2ccc(O)c(OC)c2)[C@@H]1OC [Rescimetol] — 7.3-fold lower, 1.57 µM
- CN(C)CCN(Cc1ccc(Cl)cc1)c1ccccn1 [Chloropyramine hydrochloride] — 4.8-fold lower, 2.39 µM
- CCCCOC(=O)COC(=O)c1ccccc1C(=O)OCCCC [Butylphthalyl butylglycolate] — 1.8-fold higher, 20.9 µM
- CC1COC(Cn2cncn2)(c2ccc(Oc3ccc(Cl)cc3)cc2Cl)O1 (stereo not drawn) [Difenoconazole] — 2-fold higher, 22.7 µM
- O=C(COc1ccc(Cl)cc1)N1CCN(Cc2ccc3c(c2)OCO3)CC1 [Fipexide hydrochloride] — within 1.5-fold, 16.1 µM
- Cc1cccc(Oc2ccccc2)c1 [1-Methyl-3-phenoxybenzene] — 2.1-fold higher, 23.9 µM
- C=C(C)C(=O)OCC(CC)(COC(=O)C(=C)C)COC(=O)C(=C)C [1,1,1-Trimethylolpropane trimethacrylate] — 2.6-fold higher, 30.2 µM
- CO[C@]12C[C@@H](COC(=O)c3cncc(Br)c3)CN(C)[C@@H]1Cc1cn(C)c3cccc2c13 [Nicergoline] — 7.9-fold lower, 1.45 µM
- N#CC(C#N)=NNc1cccc(Cl)c1 [Carbonyl cyanide chlorophenylhydrazone] — 3.1-fold higher, 36 µM
- COC1CC(=C(c2cccs2)c2cccs2)C[N+](C)(C)C1 (stereo not drawn) [Timepidium bromide] — 1.7-fold higher, 19.7 µM
- O=C(Oc1ccccc1)c1ccccc1C(=O)Oc1ccccc1 [Diphenyl phthalate] — within 1.5-fold, 15.5 µM
- Cc1cc(Cc2cc(C)cc(C(C)(C)C)c2O)c(O)c(C(C)(C)C)c1 [2,2'-Methylenebis(4-methyl-6-tert-butylphenol)] — 2.7-fold higher, 31.1 µM
- Cc1ccc(-c2ccccc2)cc1 [4-Phenyltoluene] — 4.3-fold higher, 49 µM
- O=[N+]([O-])c1ccccc1Nc1ccccc1 [2-Nitrodiphenylamine] — 4.2-fold higher, 48.7 µM
- Cc1nc2n(c(=O)c1CCN1CCC(C(=O)c3ccc(F)cc3)CC1)CCS2 [Setoperone] — within 1.5-fold, 9.89 µM
- CN1[C@@H]2CC[C@H]1C[C@@H](OC(=O)c1c[nH]c3ccccc13)C2 [Tropisetron] — within 1.5-fold, 12.9 µM
